Assay results from patent US11293911B2, “Multi-phase liquid composition, device for measuring permeability of drugs, and method for measuring permeability of drugs” (priority 2017, dated 2022).
Like-named read-outs stand apart in the source and are kept apart here.

Assays:
in vitro [1] = format: in vitro ADME; conditions: for Papp: not told, read-out: Permeability according to examples
Experimental: A DOPC lipid dissolved in chloroform and commercially available was collected in a glass vial, and chloroform was removed by blowing nitrogen.
The lipid film was left in the glass vial, to which the organic phase (1:1 (v/v) mixture of squalane and silicone oil (AR20)) was added, and then sonication was performed for 10-15 minutes to uniformly disperse the lipid in the oil.
Finally, an oil solution in which the lipid was dissolved (DOPC concentration: 4 mg/ml) was obtained.
Then, distilled water was added to a UV cuvette and the prepared lipid solution was added thereon.
At this time, the process of producing the lipid bilayer was performed by adding a small amount of fluorescently labeled lipid and observing it through a fluorescence microscope.
At this time, a magnetic stirring bar is placed under the UV cuvette and the lower water layer is continuously stirred during the measurement. This makes it unnecessary to consider the time when the drug passes through the lipid bilayer and diffuses to the area irradiated with UV.
The R2 value was calculated in order to determine how well the concentration and absorbance correlate at each wavelength, and the wavelength at which this value exceeds 0.99 was irradiated in the experiment.
More specifically, in FIG. 3, CA(t) means the concentration of an acceptor solution over time (where the first aqueous phase is located under the cuvette, where the drug reaches through the first lipid bilayer) and Ceq means the equilibrium concentration of the acceptor solution droplet (serving as a donor solution to provide a drug), and the acceptor solution, and is calculated by the following General Formula 1. Ceq=CD(0)VD/(VD+VA) [General Formula 1]
In General Formula 1, VA and VD are respectively the volume of a first aqueous phase (acceptor) and the volume of a second aqueous phase (donor, droplet), and CD(0) represents the drug concentration of the initial aqueous solution droplet.

in vitro [2] = conditions: PAMPA
Experimental: Subsequently, the drug concentration of the portion corresponding to the cell membrane inside (acceptor) is obtained by HPLC or UV spectroscopy, from which the membrane permeability of the corresponding drugs is calculated.

[3] = DOPC lipid bilayer, organic phase 1:1 (v/v) squalane and silicone oil (AR20), 1 μl donor droplet, real-time UV absorbance of stirred acceptor water layer

Compound	Papp (in vitro [1]) [×10⁻⁶ cm/s]	Permeability to the lipid bilayer (in words) (in vitro [1]; DOPC lipid bilayer, method of the example)	Papp (in vitro [1]; [3]) [×10⁻⁶ cm/s]	Papp (in vitro [2]) [×10⁻⁶ cm/s]
Cc1cc(=O)n(-c2ccccc2)n1C [Antipyrine]	200	–	–	–
CN/C(=N/CCSCc1nc[nH]c1C)NC#N [Cimetidine]	–	very low permeability	7.2	–
CC(=O)Nc1ccc(O)cc1 [Acetaminophen]	–	–	113	3.5
Cn1c(=O)c2c(ncn2C)n(C)c1=O [Caffeine]	–	–	248	–
